Among the data in ChEMBL document CHEMBL4765277, “Design, synthesis and biological evaluation of novel indazole-based derivatives as potent HDAC inhibitors via fragment-based virtual screening” (Eur J Med Chem, 2020) are IC50 and Activity values, retold here.

For one test, the system named is HeLa. Kind of test: cells. In kind it is functional, cell-based. To be noted: Homo sapiens, 72 h.
A further test has as its target Histone deacetylase 1 (Homo sapiens, UniProt Q13547). Kind of test: Inhibition of recombinant human C-terminal His/FLAG-tagged HDAC1 (1 to end residues) expressed in sf9 insect cells using Boc-Lys(Ac)-AMC as substrate incubated for 60 mins by fluorescence assay.
The subject of a further test is MCF7. As to the kind of experiment: cells. As to conditions: Homo sapiens, MCF7, 72 h.
For test [1], the system named is HCT-116. Kind of test: Antiproliferative activity against human HCT-116 cells assessed as reduction in cell viability after 72 hrs by MTT assay. In kind it is functional, cell-based. To be noted: HCT-116, 72 h.
The next test has as its target Histone deacetylase 2 (Homo sapiens, UniProt Q92769). As to the kind of experiment: Inhibition of recombinant human C-terminal His-tagged HDAC2 (1 to end residues) expressed in sf9 insect cells using Boc-Lys(Ac)-AMC as substrate incubated for 60 mins by fluorescence assay.
In another test the target is T1, Histone deacetylase 8 (Homo sapiens, UniProt Q9BY41).
T1 sequence (Q9BY41 whole entry): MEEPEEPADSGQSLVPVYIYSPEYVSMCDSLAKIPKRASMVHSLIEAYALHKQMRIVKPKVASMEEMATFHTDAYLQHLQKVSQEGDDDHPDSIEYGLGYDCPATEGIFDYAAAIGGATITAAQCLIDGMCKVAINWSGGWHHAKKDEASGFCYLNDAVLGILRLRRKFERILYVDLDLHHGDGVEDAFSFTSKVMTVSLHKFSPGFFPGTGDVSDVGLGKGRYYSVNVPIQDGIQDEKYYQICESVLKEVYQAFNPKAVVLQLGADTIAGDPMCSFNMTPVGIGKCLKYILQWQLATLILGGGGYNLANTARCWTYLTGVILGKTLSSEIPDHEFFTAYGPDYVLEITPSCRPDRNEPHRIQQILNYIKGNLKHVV
As to the kind of experiment: Inhibition of recombinant human full length C-terminal His-tagged HDAC8 expressed in sf9 insect cells using Boc-Lys(TFA)-AM as substrate incubated for 60 mins by fluorescence assay.

Test [2] deals with HCT-116. As to the kind of experiment: Induction of cell cycle arrest in human HCT116 cells assessed as cell accumulation at S phase at 3 uM after 24 hrs by Rnase/PI staining based flow cytometric analysis (reference value: 25.2%). The test is classed as functional. On the technique in general: A flow cytometer gives signals particle by particle.
Test [3] has as its system HCT-116. As to the kind of experiment: Induction of apoptosis in human HCT-116 cells assessed as viable cells at 3 uM after 24 hrs by Annexin V-FITC/PI staining based flow cytometric analysis (reference value: 90.34%). The test is classed as functional.
In test [4] the test system is HCT-116. As to the kind of experiment: Induction of apoptosis in human HCT-116 cells assessed as late apoptotic cells at 3 uM after 24 hrs by Annexin V-FITC/PI staining based flow cytometric analysis (reference value: 5.14%). The test is classed as functional.
In test [5] the test system is HCT-116. Kind of test: Induction of cell cycle arrest in human HCT116 cells assessed as cell accumulation at G0/G1 phase at 3 uM after 24 hrs by Rnase/PI staining based flow cytometric analysis (reference value: 48.4%). The test is classed as functional.
Test [6] relates to HCT-116. As to the kind of experiment: Induction of apoptosis in human HCT-116 cells assessed as late apoptotic cells at 1 uM after 24 hrs by Annexin V-FITC/PI staining based flow cytometric analysis (reference value: 5.14%). In kind it is functional.
Test [7] relates to HCT-116. As to the kind of experiment: Induction of apoptosis in human HCT-116 cells assessed as viable cells at 1 uM after 24 hrs by Annexin V-FITC/PI staining based flow cytometric analysis (reference value: 90.34%). The test is classed as functional.
Test [8] has as its system HCT-116. As to the kind of experiment: Induction of apoptosis in human HCT-116 cells assessed as necrotic cells at 10 uM after 24 hrs by Annexin V-FITC/PI staining based flow cytometric analysis (reference value: 0.51%). The test is classed as functional.
Test [9] deals with HCT-116. As to the kind of experiment: Induction of apoptosis in human HCT-116 cells assessed as early apoptotic cells at 1 uM after 24 hrs by Annexin V-FITC/PI staining based flow cytometric analysis (reference value: 4.01%). The test is classed as functional.
Test [10] relates to HCT-116. As to the kind of experiment: Induction of cell cycle arrest in human HCT116 cells assessed as cell accumulation at G2/M phase at 3 uM after 24 hrs by Rnase/PI staining based flow cytometric analysis (reference value: 26.4%). The test is classed as functional.
The subject of test [11] is HCT-116. Kind of test: Induction of apoptosis in human HCT-116 cells assessed as early apoptotic cells at 10 uM after 24 hrs by Annexin V-FITC/PI staining based flow cytometric analysis (reference value: 4.01%). In kind it is functional.
Test [12] has as its system HCT-116. As to the kind of experiment: Induction of apoptosis in human HCT-116 cells assessed as early apoptotic cells at 3 uM after 24 hrs by Annexin V-FITC/PI staining based flow cytometric analysis (reference value: 4.01%). In kind it is functional.
Test [13] deals with HCT-116. Kind of test: Induction of apoptosis in human HCT-116 cells assessed as necrotic cells at 3 uM after 24 hrs by Annexin V-FITC/PI staining based flow cytometric analysis (reference value: 0.51%). The test is classed as functional.
The subject of test [14] is HCT-116. Kind of test: Induction of apoptosis in human HCT-116 cells assessed as late apoptotic cells at 10 uM after 24 hrs by Annexin V-FITC/PI staining based flow cytometric analysis (reference value: 5.14%). The test is classed as functional.

Sequence of Histone deacetylase 1 (Q13547 whole entry): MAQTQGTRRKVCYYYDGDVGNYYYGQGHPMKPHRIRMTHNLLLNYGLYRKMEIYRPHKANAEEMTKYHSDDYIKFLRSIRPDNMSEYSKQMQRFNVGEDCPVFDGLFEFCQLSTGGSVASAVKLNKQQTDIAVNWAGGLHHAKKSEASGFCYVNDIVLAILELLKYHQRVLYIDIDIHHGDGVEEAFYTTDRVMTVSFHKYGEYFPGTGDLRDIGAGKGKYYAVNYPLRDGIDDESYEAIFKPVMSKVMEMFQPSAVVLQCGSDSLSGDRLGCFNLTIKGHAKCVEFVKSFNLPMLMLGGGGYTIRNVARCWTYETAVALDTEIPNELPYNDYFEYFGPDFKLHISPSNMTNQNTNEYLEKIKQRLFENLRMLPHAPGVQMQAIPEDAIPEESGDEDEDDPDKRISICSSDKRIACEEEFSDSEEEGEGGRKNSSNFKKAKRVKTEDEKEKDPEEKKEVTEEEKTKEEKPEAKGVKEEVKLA
Sequence of Histone deacetylase 2 (Q92769 whole entry): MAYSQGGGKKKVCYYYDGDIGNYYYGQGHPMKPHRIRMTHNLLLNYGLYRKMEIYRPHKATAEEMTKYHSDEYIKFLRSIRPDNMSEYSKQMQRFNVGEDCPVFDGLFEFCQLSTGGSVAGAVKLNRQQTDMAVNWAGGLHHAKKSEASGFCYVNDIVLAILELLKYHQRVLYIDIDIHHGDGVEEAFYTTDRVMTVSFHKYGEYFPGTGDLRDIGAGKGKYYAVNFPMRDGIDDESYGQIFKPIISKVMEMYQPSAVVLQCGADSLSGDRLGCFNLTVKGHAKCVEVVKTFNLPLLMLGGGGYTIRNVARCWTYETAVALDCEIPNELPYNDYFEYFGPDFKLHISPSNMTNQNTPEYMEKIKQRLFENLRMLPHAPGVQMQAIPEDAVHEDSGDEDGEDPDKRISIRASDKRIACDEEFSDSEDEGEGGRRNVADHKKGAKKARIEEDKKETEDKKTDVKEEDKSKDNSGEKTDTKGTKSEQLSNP
Description for HeLa: Antiproliferative activity against human HeLa cells assessed as reduction in cell viability after 72 hrs by MTT assay
Description for MCF7: Antiproliferative activity against human MCF7 cells assessed as reduction in cell viability after 72 hrs by MTT assay

With `O=C(CCCCCCC(=O)Nc1n[nH]c2cc(-c3ccccc3F)ccc12)NO`, the IC50 in the test with HeLa was 13800 nM; at Histone deacetylase 1, 1.8 nM; in the test with MCF7 it was 2500 nM; in the test with HCT-116 [1], 4100 nM; on Histone deacetylase 2, 4.4 nM; at Histone deacetylase 8, 2.4 nM.

For `O=C(CCCCCCC(=O)Nc1n[nH]c2cc(-c3cccc(C(F)(F)F)c3)ccc12)NO`, the IC50 amounted to 6000 nM with HeLa; 2.5 nM on Histone deacetylase 1; 47300 nM with MCF7; 2900 nM with HCT-116 [1]; 5 nM at Histone deacetylase 2; 4.1 nM on Histone deacetylase 8.

As to `COc1cccc(-c2ccc3c(NC(=O)CCCCCCC(=O)NO)n[nH]c3c2)c1F`, the half-inhibitory concentration (IC50) is 9800 nM with HeLa; 3.1 nM on Histone deacetylase 1; 2000 nM in the test on MCF7; 7600 nM in the test with HCT-116 [1]; 6 nM on Histone deacetylase 2; 4.4 nM at Histone deacetylase 8.

As for `O=C(CCCCCCC(=O)Nc1n[nH]c2cc(-c3ccccc3Cl)ccc12)NO`, the IC50 amounted to 8100 nM in the test on HeLa; 2.7 nM at Histone deacetylase 1; 2200 nM in the test with MCF7; 2600 nM with HCT-116 [1]; 5.2 nM on Histone deacetylase 2; 4 nM on Histone deacetylase 8.

For the compound `COc1ccccc1-c1ccc2c(NC(=O)CCCCCCC(=O)NO)n[nH]c2c1`, the half-maximal inhibitory concentration (IC50) worked out at 5900 nM in the test with HeLa; 4.6 nM on Histone deacetylase 1; 5700 nM with MCF7; 2700 nM in the test on HCT-116 [1]; 5.4 nM at Histone deacetylase 2; 4.2 nM on Histone deacetylase 8.

With `O=C(CCCCCCC(=O)Nc1n[nH]c2cc(-c3ccsc3)ccc12)NO`, the half-inhibitory concentration (IC50) was determined as 29500 nM with HeLa; 36.2 nM at Histone deacetylase 1; 8300 nM in the test with MCF7; 7500 nM in the test on HCT-116 [1]; 31.6 nM on Histone deacetylase 2; 32.5 nM at Histone deacetylase 8.

Consider `COc1cccc(-c2ccc3c(NC(=O)CCCC(=O)NO)n[nH]c3c2)c1`, for which the IC50 with HeLa was above 50000 nM; at Histone deacetylase 1, 76 nM; in the test with MCF7 it was 41500 nM; in the test on HCT-116 [1] it was above 50000 nM; at Histone deacetylase 2, 168 nM; on Histone deacetylase 8, 54 nM.

For the compound `O=C(CCCCCCC(=O)Nc1ccccc1)NO` [VORINOSTAT], the Activity amounted to 29.4% in the test on HCT-116 [2]; 17.93% with HCT-116 [3]; 67.78% with HCT-116 [4]; 26.2% with HCT-116 [5]; 57.83% in the test with HCT-116 [6]; 77.54% in the test on HCT-116 [7]. Moreover, the Activity was found to be 1.37% in the test on HCT-116 [8]; 12.87% in the test on HCT-116 [9]; 44.2% with HCT-116 [10]; 14.44% in the test on HCT-116 [11]; 12.27% with HCT-116 [12]; 2.03% in the test on HCT-116 [13]. In addition, the Activity with HCT-116 [14] is listed as 67.72%. In addition, the results for the half-maximal inhibitory concentration (IC50) with MCF7 and with HCT-116 [1] were 800 nM and 4900 nM, respectively.

Consider `COc1cc(OC)cc(-c2ccc3c(NC(=O)CCCCCCC(=O)NO)n[nH]c3c2)c1`, for which the 50% inhibitory concentration (IC50) with HeLa was 7300 nM; at Histone deacetylase 1, 4.6 nM; with MCF7, 55200 nM; in the test on HCT-116 [1], 9500 nM; at Histone deacetylase 2, 4.8 nM; at Histone deacetylase 8, 4.4 nM.

Regarding `COc1ccc(-c2ccc3c(NC(=O)CCCCCCC(=O)NO)n[nH]c3c2)cc1OC`, the half-inhibitory concentration (IC50) in the test with HeLa came out at 21300 nM; on Histone deacetylase 1 it was 3.4 nM; in the test on MCF7, 10900 nM; in the test with HCT-116 [1], 14600 nM; on Histone deacetylase 2, 4.6 nM; on Histone deacetylase 8 it was 3.2 nM.

Take `O=C(CCCCCCC(=O)Nc1n[nH]c2cc(-c3cccc(Cl)c3)ccc12)NO`: the IC50 came to 200 nM with HeLa; 3.7 nM at Histone deacetylase 1; 27500 nM in the test on MCF7; 41800 nM in the test with HCT-116 [1]; 4 nM at Histone deacetylase 2; 3.8 nM at Histone deacetylase 8.

As to `COc1cccc(-c2ccc3c(NC(=O)CCCCCCC(=O)NO)n[nH]c3c2)c1`, the IC50 worked out at 3000 nM in the test on HeLa; 1.9 nM on Histone deacetylase 1; 19100 nM in the test with MCF7; 8100 nM with HCT-116 [1]; 3.9 nM at Histone deacetylase 2; 3 nM on Histone deacetylase 8.

In the case of `O=C(CCCCCCC(=O)Nc1n[nH]c2cc(-c3ccncc3)ccc12)NO`, the IC50 in the test on HeLa is 6900 nM; on Histone deacetylase 1, 23 nM; with MCF7, 40100 nM; with HCT-116 [1] it was 12300 nM; on Histone deacetylase 2 it was 25.9 nM; at Histone deacetylase 8, 24.5 nM.

Regarding `COc1ccc(F)c(-c2ccc3c(NC(=O)CCCCCCC(=O)NO)n[nH]c3c2)c1`, the half-inhibitory concentration (IC50) was 3300 nM with HeLa; 3 nM on Histone deacetylase 1; 4900 nM with MCF7; 7500 nM in the test on HCT-116 [1]; 3.5 nM on Histone deacetylase 2; 4.9 nM at Histone deacetylase 8.

For the compound `COc1cccc(-c2ccc3c(NC(=O)CCCCCCC(=O)NO)n[nH]c3n2)c1`, the IC50 was determined as 3600 nM with HeLa; 2.4 nM on Histone deacetylase 1; 8600 nM in the test with MCF7; 2700 nM in the test with HCT-116 [1]; 5.3 nM on Histone deacetylase 2; 3.3 nM on Histone deacetylase 8.

In the case of `COc1cccc(-c2ccc3c(NC(=O)CCCCCC(=O)NO)n[nH]c3c2)c1`, the IC50 was 20100 nM with HeLa; 2.6 nM at Histone deacetylase 1; 7400 nM in the test with MCF7; 10600 nM with HCT-116 [1]; 63 nM on Histone deacetylase 2; 4.5 nM at Histone deacetylase 8.

On to `O=C(CCCCCCC(=O)Nc1n[nH]c2cc(-c3ccccc3)ccc12)NO`, for which the half-maximal inhibitory concentration (IC50) with HeLa stood at 12500 nM; on Histone deacetylase 1, 9.6 nM; in the test with MCF7, 5500 nM; with HCT-116 [1], 10200 nM; on Histone deacetylase 2 it was 13.1 nM; at Histone deacetylase 8 it was 12.6 nM.

`COc1cccc(-c2ccc3c(NC(=O)CCCCC(=O)NO)n[nH]c3c2)c1`: the IC50 with HeLa stood at 5800 nM; at Histone deacetylase 1, 13 nM; in the test with MCF7, 4400 nM; in the test with HCT-116 [1], 23500 nM; at Histone deacetylase 2, 62 nM; at Histone deacetylase 8, 41 nM.

Consider `CCOc1cccc(-c2ccc3c(NC(=O)CCCCCCC(=O)NO)n[nH]c3c2)c1`, for which the IC50 in the test with HeLa was 10800 nM; at Histone deacetylase 1, 2.1 nM; with MCF7, 2400 nM; in the test on HCT-116 [1] it was 4200 nM; on Histone deacetylase 2, 4.2 nM; at Histone deacetylase 8 it was 3.4 nM.

Consider `COc1cccc(-c2ccc3c(NC(=O)C4CCC(C(=O)NO)CC4)n[nH]c3c2)c1` (centres undefined), for which the concentration for half-maximal inhibition (IC50) in the test on HeLa was above 50000 nM; on Histone deacetylase 1, 2420 nM; in the test on MCF7 it was above 50000 nM; in the test with HCT-116 [1], 47400 nM; at Histone deacetylase 2, 4630 nM; at Histone deacetylase 8, 3340 nM.

Broadly, the IC50 is the concentration needed to halve the response being measured.
